Tests used:
[1] = biological target: T1, 5-hydroxytryptamine receptor 2C (Homo sapiens, UniProt P28335); experiment: (§1) Compound was tested for its affinity towards 5-hydroxytryptamine 1C receptor
T1 sequence (P28335 whole entry): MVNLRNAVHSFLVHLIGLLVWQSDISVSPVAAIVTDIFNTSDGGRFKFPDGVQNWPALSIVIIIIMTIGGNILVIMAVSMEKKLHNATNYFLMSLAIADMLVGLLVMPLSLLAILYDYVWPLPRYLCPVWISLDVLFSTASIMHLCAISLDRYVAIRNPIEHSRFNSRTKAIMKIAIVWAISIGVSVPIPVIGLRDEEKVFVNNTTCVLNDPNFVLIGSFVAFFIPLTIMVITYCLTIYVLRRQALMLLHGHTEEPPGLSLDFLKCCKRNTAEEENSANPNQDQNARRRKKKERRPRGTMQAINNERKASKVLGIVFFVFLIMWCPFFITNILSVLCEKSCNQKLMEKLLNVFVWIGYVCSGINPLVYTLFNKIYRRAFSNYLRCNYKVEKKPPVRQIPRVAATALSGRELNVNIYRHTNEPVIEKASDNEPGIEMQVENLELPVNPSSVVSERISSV

[2] = biological target: Serotonin 2 (5-HT2) receptor (Homo sapiens, UniProt P41595+P28223+P28335); experiment: Compound was tested for its affinity towards 5-hydroxytryptamine 2 receptor; assay type: protein assay
[3] = biological target: T2, 5-hydroxytryptamine receptor 3A (Homo sapiens, UniProt P46098); experiment: (§2) Compound was tested for its affinity towards 5-hydroxytryptamine 3 receptor
T2 sequence (P46098 whole entry): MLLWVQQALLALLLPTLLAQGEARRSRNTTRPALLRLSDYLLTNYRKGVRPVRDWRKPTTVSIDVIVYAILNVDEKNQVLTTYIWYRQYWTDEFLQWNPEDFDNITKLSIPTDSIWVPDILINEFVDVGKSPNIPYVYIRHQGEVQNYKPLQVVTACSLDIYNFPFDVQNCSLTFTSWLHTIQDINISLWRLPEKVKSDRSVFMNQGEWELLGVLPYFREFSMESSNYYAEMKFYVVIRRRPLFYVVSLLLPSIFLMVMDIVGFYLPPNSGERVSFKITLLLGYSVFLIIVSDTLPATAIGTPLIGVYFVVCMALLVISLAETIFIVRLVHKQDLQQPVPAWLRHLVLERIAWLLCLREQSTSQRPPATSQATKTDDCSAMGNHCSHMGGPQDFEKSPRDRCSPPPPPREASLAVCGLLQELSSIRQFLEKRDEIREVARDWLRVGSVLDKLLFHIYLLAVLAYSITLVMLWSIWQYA

[4] = biological target: T3, Adrenergic receptor alpha-1 (Homo sapiens, UniProt P35348+P25100+P35368); experiment: Compound was tested for its affinity towards Alpha-1 adrenergic receptor; assay type: protein assay
T3 sequence (P35348 whole entry): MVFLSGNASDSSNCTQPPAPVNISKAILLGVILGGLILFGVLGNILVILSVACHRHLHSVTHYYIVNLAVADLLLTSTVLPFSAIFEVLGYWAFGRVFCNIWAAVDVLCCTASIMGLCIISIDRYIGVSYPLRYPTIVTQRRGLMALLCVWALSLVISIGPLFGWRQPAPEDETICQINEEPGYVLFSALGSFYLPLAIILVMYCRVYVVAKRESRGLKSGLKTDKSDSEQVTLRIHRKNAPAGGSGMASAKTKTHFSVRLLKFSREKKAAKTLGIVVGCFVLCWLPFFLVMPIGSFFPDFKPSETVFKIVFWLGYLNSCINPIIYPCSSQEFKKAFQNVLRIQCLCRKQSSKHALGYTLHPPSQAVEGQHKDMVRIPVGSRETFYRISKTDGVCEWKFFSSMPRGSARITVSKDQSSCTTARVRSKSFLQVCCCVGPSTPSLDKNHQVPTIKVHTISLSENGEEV
T3 sequence (P25100 whole entry): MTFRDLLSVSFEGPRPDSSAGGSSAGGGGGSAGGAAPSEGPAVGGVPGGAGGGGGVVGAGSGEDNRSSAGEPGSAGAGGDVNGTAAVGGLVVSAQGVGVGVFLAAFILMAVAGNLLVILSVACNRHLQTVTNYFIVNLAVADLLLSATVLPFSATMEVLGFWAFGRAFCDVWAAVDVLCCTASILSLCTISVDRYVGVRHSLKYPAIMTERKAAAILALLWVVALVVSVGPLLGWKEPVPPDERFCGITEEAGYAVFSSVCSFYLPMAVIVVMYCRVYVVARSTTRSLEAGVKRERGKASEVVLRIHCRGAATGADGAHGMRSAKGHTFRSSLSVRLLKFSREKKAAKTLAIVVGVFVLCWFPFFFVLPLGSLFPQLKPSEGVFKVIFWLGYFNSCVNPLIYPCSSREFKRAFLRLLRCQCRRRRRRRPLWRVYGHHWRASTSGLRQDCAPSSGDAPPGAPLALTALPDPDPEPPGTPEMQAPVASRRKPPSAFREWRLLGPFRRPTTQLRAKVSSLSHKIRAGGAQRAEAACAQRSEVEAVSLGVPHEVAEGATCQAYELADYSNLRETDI
T3 sequence (P35368 whole entry): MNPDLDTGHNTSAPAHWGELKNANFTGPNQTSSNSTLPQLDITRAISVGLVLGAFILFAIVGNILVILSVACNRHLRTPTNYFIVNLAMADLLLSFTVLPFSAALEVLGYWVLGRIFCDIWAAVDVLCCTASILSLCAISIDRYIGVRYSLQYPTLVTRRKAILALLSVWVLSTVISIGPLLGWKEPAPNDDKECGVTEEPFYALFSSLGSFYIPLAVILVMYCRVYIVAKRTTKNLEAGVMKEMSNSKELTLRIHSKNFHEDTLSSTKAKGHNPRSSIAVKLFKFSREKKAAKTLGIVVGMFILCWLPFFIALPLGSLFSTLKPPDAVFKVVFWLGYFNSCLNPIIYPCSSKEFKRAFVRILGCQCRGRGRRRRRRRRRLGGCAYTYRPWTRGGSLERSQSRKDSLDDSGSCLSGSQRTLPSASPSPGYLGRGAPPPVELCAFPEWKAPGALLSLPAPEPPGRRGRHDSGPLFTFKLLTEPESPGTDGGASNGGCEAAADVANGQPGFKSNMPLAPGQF

[5] = biological target: D(2) dopamine receptor (Homo sapiens, UniProt P14416); experiment: Compound was tested for its affinity towards dopaminergic (D2) receptor
Sequence of D(2) dopamine receptor (P14416 whole entry): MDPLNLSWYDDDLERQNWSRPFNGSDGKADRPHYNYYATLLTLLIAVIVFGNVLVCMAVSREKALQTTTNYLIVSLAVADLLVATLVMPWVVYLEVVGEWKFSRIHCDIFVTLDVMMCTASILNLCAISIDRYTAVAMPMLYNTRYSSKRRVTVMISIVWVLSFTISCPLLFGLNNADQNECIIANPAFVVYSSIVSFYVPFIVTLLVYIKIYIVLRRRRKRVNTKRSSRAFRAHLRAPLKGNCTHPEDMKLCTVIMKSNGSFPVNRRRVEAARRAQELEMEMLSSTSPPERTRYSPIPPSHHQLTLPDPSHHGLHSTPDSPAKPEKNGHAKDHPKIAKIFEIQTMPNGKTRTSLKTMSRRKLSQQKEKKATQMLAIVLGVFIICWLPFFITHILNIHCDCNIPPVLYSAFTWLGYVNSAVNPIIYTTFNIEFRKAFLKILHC

[6] = biological target: Histamine H1 receptor (Homo sapiens, UniProt P35367); experiment: Compound was tested for its affinity towards histaminergic (H 1) receptor
Sequence of Histamine H1 receptor (P35367 whole entry): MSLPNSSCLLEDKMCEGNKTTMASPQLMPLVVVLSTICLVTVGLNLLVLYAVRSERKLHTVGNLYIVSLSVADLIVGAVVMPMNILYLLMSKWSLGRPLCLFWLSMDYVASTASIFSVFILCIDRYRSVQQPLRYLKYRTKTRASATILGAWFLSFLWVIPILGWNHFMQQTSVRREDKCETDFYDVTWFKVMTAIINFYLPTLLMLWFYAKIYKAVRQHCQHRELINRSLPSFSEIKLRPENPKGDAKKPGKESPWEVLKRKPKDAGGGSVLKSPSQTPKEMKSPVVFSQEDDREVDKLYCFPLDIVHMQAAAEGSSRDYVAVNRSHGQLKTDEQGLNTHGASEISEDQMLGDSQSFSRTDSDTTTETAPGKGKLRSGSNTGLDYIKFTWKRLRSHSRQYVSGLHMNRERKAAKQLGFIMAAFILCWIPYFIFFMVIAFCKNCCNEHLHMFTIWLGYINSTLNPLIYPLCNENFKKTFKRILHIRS

[7] = biological target: T4, Muscarinic acetylcholine receptor M4 (Homo sapiens, UniProt P08173); experiment: Compound was tested for its affinity towards muscarinic (M) receptor
T4 sequence (P08173 whole entry): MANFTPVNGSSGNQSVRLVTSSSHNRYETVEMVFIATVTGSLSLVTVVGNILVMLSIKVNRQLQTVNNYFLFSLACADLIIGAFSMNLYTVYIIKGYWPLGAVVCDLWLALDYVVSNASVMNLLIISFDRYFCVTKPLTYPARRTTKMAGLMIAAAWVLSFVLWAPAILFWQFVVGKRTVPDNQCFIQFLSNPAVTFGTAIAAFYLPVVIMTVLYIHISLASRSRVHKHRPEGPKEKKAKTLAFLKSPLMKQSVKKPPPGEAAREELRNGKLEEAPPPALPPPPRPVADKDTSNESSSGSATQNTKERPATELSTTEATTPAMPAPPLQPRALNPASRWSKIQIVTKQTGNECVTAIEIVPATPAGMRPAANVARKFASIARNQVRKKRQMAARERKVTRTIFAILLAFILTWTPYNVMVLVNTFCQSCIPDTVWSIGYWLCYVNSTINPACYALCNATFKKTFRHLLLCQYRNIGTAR

[8] = biological target: T5, 5-hydroxytryptamine receptor 4 (Homo sapiens, UniProt Q13639); experiment: Compound was tested for its affinity towards 5-hydroxy tryptamine 4 receptor
T5 sequence (Q13639 whole entry): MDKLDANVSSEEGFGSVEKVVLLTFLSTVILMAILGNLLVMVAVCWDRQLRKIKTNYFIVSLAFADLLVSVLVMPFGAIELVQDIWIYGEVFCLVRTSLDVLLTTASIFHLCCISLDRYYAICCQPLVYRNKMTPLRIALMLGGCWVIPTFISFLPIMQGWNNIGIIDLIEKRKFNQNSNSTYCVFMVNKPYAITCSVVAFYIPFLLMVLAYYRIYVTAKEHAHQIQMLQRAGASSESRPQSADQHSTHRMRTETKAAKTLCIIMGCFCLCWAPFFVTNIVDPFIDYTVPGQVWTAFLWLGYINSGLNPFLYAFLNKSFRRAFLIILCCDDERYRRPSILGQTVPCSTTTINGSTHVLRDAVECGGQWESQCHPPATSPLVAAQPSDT

[9] = species on record: Oryctolagus cuniculus; experiment: Compound was tested for its ability to contract rabbit saphenous vein; assay type: functional
[10] = biological target: 5-hydroxytryptamine receptor 1D (Cavia porcellus, UniProt Q60484); experiment: Binding affinity towards guinea pig 5-hydroxytryptamine 1D receptor was determined
Sequence of 5-hydroxytryptamine receptor 1D (Cavia porcellus, UniProt Q60484) (Q60484 whole entry): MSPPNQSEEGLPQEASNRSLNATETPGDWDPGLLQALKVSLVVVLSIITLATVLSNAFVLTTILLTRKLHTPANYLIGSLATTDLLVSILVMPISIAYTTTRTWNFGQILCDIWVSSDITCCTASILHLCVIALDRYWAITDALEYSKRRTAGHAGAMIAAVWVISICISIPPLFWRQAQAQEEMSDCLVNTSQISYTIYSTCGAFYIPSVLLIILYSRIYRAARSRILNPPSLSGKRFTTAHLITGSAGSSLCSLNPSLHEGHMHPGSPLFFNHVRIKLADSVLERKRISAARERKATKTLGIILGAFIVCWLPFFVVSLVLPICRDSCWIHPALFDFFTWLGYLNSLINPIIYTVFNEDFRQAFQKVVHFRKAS

[11] = biological target: T6, 5-hydroxytryptamine receptor 1A (Homo sapiens, UniProt P08908); experiment: Compound was tested for its ability to inhibit forskolin-stimulated activity of adenylate cyclase coupled to human 5-hydroxytryptamine 1A receptor in HeLa cells; value ranges from 95-320; assay type: functional, cell-based
T6 sequence (P08908 whole entry): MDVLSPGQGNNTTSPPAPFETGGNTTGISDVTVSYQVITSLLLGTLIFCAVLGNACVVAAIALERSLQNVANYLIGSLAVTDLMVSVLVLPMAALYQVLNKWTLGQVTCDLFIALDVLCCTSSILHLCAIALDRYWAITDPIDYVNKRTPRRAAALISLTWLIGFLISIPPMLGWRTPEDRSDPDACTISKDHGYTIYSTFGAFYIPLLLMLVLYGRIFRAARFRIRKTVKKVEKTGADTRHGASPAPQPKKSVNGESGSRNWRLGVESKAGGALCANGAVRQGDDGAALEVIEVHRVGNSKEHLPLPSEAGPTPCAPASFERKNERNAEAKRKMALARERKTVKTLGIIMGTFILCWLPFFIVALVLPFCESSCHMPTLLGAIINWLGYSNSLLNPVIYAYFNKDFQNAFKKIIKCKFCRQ

[12] = biological target: T6, 5-hydroxytryptamine receptor 1A; experiment: Binding affinity towards cloned human 5-hydroxytryptamine 1A receptor was determined
[13] = biological target: T7, 5-hydroxytryptamine receptor 2C (Rattus norvegicus, UniProt P08909); experiment: as §1
T7 sequence (P08909 whole entry): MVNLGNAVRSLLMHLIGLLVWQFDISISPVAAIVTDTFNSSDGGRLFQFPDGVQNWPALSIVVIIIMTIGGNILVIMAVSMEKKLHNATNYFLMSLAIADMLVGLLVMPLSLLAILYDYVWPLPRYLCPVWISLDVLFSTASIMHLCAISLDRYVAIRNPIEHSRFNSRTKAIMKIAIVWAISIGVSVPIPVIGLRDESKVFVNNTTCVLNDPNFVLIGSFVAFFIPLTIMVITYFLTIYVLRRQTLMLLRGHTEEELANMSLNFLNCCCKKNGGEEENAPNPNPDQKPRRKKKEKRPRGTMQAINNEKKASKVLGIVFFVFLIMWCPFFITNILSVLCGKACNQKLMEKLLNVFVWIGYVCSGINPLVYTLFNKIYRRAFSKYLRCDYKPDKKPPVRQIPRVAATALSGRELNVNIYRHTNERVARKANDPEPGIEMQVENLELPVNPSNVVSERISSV

[14] = biological target: 5-hydroxytryptamine receptor 1D (Homo sapiens, UniProt P28221); experiment: Binding affinity towards cloned human 5-hydroxytryptamine 1D receptor alpha was determined
Sequence of 5-hydroxytryptamine receptor 1D (Homo sapiens, UniProt P28221) (P28221 whole entry): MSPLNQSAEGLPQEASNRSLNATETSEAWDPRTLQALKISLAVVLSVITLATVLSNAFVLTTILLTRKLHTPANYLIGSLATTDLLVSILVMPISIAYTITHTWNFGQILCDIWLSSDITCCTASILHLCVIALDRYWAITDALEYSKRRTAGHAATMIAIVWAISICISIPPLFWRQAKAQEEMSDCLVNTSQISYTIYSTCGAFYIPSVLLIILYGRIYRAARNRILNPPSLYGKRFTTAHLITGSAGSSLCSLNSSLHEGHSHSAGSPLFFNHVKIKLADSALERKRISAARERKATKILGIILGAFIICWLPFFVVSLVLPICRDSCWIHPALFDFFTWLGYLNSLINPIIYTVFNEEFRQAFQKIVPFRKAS

[15] = biological target: Serotonin 3 (5-HT3) receptor; experiment: as §2; assay type: protein-complex assay
[16] = biological target: T5, 5-hydroxytryptamine receptor 4; experiment: Compound was tested for its affinity towards 5-hydroxytryptamine 4 receptor
[17] = biological target: T6, 5-hydroxytryptamine receptor 1A; experiment: Compound was tested for its ability to inhibit forskolin-stimulated activity of adenylate cyclase coupled to human 5-HT 1A receptor in HeLa cells; value ranges from 85-370; assay type: functional, cell-based

SMILES	IC50 [2] [nM]	IC50 [4] [nM]	IC50 [5] [nM]	IC50 [6] [nM]	IC50 [7] [nM]	pD2 [9]	Ki [12] [nM]	Ki [14] [nM]	also measured
Cc1ccccc1N1CCN(C(=O)COc2ccc3[nH]cc(CCN)c3c2)CC1	> 10000	> 10000	> 10000	> 10000	> 10000				IC50 [1]: > 10000 nM; IC50 [3]: > 10000 nM; IC50 [8]: > 10000 nM
CNS(=O)(=O)Cc1ccc2[nH]cc(CCN(C)C)c2c1						5.75			
NCCc1c[nH]c2ccc(OCC(=O)NCC(=O)N[C@@H](Cc3ccc(O)cc3)C(N)=O)cc12									IC50 [10]: 60 nM
NCCc1c[nH]c2ccc(OCC(=O)N3CCN(c4cccc5ccccc45)CC3)cc12	> 1000	> 1000	> 1000	> 1000	> 1000		8.9	0.95	EC50 [11]: 95 nM; IC50 [13]: > 1000 nM; IC50 [15]: > 1000 nM; IC50 [16]: > 1000 nM
COc1cccc(N2CCN(C(=O)COc3ccc4[nH]cc(CCN)c4c3)CC2)c1							9.8	2	EC50 [17]: 85 nM
NCCc1c[nH]c2ccc(OCC(=O)N3CCN(c4ccccc4)CC3)cc12						7.36			
